Legend:
[1] = system: HGF/SF induced proliferation of HUVEC; test: Endothelial cell (HUVEC) proliferation assay in the presence of exogenously-added HGF/SF; assay type: cell-based, human; settings: with HGF/SF
From the text: To evaluate inhibitors of activity, compounds may be evaluated directly for anti-proliferative activities, such as the inhibition of cellular proliferation, inhibition of tumor growth, inhibition of scatter, and inhibition of gene expression, and may also be evaluated on their ability to inhibit activity when exposed to cells together with. In such instances, the scatter and/or proliferative activities induced by added will be inhibited by the attendant presence of an inhibitory compound of the invention.
(§1) Cell proliferation assays Endothelial cells (HUVECs) were seeded in 48 well plates at a density of 10,000 to 20,000 cells per well in the normal growth medium (EGM-2-Clonetics) containing 2% fetal bovine serum, FGF, VEGF, IGF, ascorbic acid, EGF, GA, heparin and hydrocortisone. The cells were grown normally in the growth medium for 24 hr at 37 degrees C. and 5% CO2. The cells were then rinsed with RPMI-1% BSA and starved for 1-2 hrs. The stock solutions of all the compounds were made at a concentration of 10 mg/ml in DMSO and diluted in RPMI-1% BSA at a final concentrations of 1 to 12 microgram/ml. The cells were then washed and treated with the compounds and incubated for another 24 hr at 37 degrees C. Then ^3H thymidine (0.5 microgram/ml in RPMI-BSA) was added to the cells and incubated at 37 degrees C. for 4 to 5 hours. The unincorporated thymidine was removed by washing the cells four times with 1× PBS. Then the cells were lysed with 0.5M NaOH for 30 min and the radioactivity counted in the beta counter.

[2] = system: Endothelial cells (HUVECs); test: Endothelial cell (HUVEC) proliferation assay, 3H thymidine incorporation, compound without added growth factor; assay type: cell-based, human; settings: for activation at 5 µg/mL / activation at 10 µg/mL: 24 h; for activation at 5 µg/mL / Stimulation/Inhibition at 5 microg/ml (result in words) / Stimulation at 5 microg/ml: 5 microg/ml; for activation at 5 µg/mL / activation at 10 µg/mL / Stimulation at 5 microg/ml / Stimulation at 10 microg/ml: stimulation of endothelial cell proliferation
Method: as §1, with “counter. […]” for “counter.”

[3] = Homo sapiens, HUVEC, 10 microg/ml

Compound: Cc1nc(C(=O)NNC(=O)c2c(-c3c(Cl)cccc3Cl)noc2C)cs1 [N′4-((2-methyl-1,3-thiazol-4-4yl)carbonyl)-3-(2,6-dichlorophenyl)-5-methylisoxazole-4-4carbohydrazide]
- Activity at 2 microgram/ml With HGF/SF: inhibition (blocked SF) ([1]; 2 microgram/ml, inhibition of HUVEC proliferation): 50%
- Activity at 6 microgram/ml With HGF/SF: inhibition (blocked SF) ([1]; 6 microgram/ml, inhibition of HUVEC proliferation): 50%
- Activity at 2 microgram/ml Without HGF/SF (result in words) ([2]; 2 microgram/ml, without HGF/SF): No effect
- Activity at 6 microgram/ml Without HGF/SF: stimulation ([2]; 6 microgram/ml, without HGF/SF, stimulation of HUVEC proliferation): 52%

Compound: c1ccc2c(c1)cc(-c1cc3ccccc3c3ccccc13)c1ccccc12 [9,9-Biphenanthrene]
- Inhibition at 6-12 micrograms/ml With ([1]; 6-12 micrograms/ml, inhibition of endothelial cell proliferation): 20-40% inhibition
- Stimulation/Inhibition at 6-12 micrograms/ml Without HGF/SF (result in words) ([2]; 6-12 micrograms/ml, without HGF/SF): No effect

Compound: CS(=O)(=O)n1ccc(C=Cc2cccs2)n1 [1-(methylsulfonyl)-3-(2-(2-thienyl)vinyl)-1H-pyrazole]
- Stimulation/Inhibition at 10 microg/ml (result in words) ([2]; 10 microg/ml): Not significant
- activation at 5 µg/mL ([2]; Homo sapiens, HUVEC): 74%

Compound: CSc1cc(-c2ccc(Oc3ccccc3)cc2)nn1C(=O)c1ccc(Cl)cc1 [(4-chlorophenyl)(5-(methylthio)-3-(4-phenoxyphenyl)-1H-pyrazol-1-yl)methanone]
- Stimulation/Inhibition at 5 microg/ml (result in words) [2]: No effect
- inhibition at 10 µg/mL ([2]; Homo sapiens, HUVEC, 10 microg/ml, inhibition of endothelial cell proliferation): 40%

Compound: O=C(Nc1ccccc1)n1ccc(C=Cc2cccs2)n1 [N1-phenyl-3-(2-(2-thienyl)vinyl)-1H-pyrazole-1-carboxamide]
- Stimulation/Inhibition at 10 microg/ml (result in words) ([2]; 10 microg/ml): Not significant
- activation at 5 µg/mL ([2]; Homo sapiens, HUVEC): 40%

Compound: O=C(c1ccc(Cl)cc1)n1ccc(C(c2ccccc2)c2ccccc2)n1 [(3-benzhydryl-1H-pyrazol-1-yl)(4-chlorophenyl)methanone]
- Stimulation/Inhibition at 5 microg/ml (result in words) [2]: No effect
- activation at 10 µg/mL [2, 3]: 25%

Compound: O=C(c1ccc(Cl)cc1)n1ccc(-c2cc(-c3ccccc3)no2)n1 [(4-chlorophenyl)(3-(3-phenylisoxazol-5-yl)-1H-pyrazol-1-yl)methanone]
- activation at 5 µg/mL ([2]; Homo sapiens, HUVEC): 54%
- activation at 10 µg/mL [2, 3]: 60%

Compound: Cc1nn(S(=O)(=O)c2ccc(Cl)c(Cl)c2)c(C)c1Cc1c(F)cccc1Cl [4-(2-chloro-6-fluorobenzyl)-1-((3,4-dichlorophenyl)sulfonyl)-3,5-dimethyl-1H-pyrazole]
- Activity at 2 microgram/ml Without HGF/SF: stimulation ([2]; 2 microgram/ml, without HGF/SF, stimulation of HUVEC proliferation): 73%

Compound: CCc1c[nH]nc1-c1c(F)cccc1F [3-(2,6-difluorophenyl)-4-ethyl-1H-pyrazole]
- Stimulation at 5 microg/ml [2]: two fold stimulation
- activation at 10 µg/mL [2, 3]: 86%

Compound: Cc1nn(C(=O)Nc2ccc(Cl)cc2Cl)c(C)c1Cc1csc2ccc(Cl)cc12 [4-[(5-chloro-1-benzothiophen-3-yl)methyl]-N-(2,4-dichlorophenyl)-3,5-dimethyl-1H-pyrazole-1-carboxamide]
- activation at 5 µg/mL ([2]; Homo sapiens, HUVEC): 75%
- activation at 10 µg/mL [2, 3]: 35%

Compound: Cc1onc(-c2c(Cl)cccc2Cl)c1C(=O)NN [3-(2,6-dichlorophenyl)-5-methylisoxazole-4-carbohydrazide]
- Activity at 2 microgram/ml Without HGF/SF (result in words) ([2]; 2 microgram/ml, without HGF/SF): not significant

Compound: Cc1nn(C(=O)c2ccc([N+](=O)[O-])cc2)c(C)c1Cc1csc2ccc(Cl)cc12 [{4-[(5-chlorobenzo[b]thiophen-3-yl)methyl]-3,5-dimethyl-1H-pyrazol-1-yl}(4-nitrophenyl)methanone]
- Stimulation at 10 microg/ml ([2]; 10 microg/ml): 2.5 fold stimulation
- activation at 5 µg/mL ([2]; Homo sapiens, HUVEC): 74%

Compound: C=C(C)Cc1c(C)nn(S(=O)(=O)c2ccccc2)c1O [3-methyl-4-(2-methylallyl)-1-(phenylsulfonyl)-1H-pyrazol-5-ol]
- Stimulation at 5 microg/ml [2]: two fold stimulation
- Stimulation/Inhibition at 10 microg/ml (result in words) ([2]; 10 microg/ml): Not significant

Compound: Cc1nn(C(=O)c2ccc(Cl)cc2)c(C)c1Sc1nccn1C [(4-chlorophenyl)(3,5-dimethyl-4-((1-methyl-1H-imidazol-2-yl)thio)-1H-pyrazol-1-yl)methanone]
- activation at 5 µg/mL ([2]; Homo sapiens, HUVEC): 52%
- activation at 10 µg/mL [2, 3]: 50%

Compound: Cc1nn(C(=O)Nc2cccc(Cl)c2)c(C)c1Cc1csc2ccc(Cl)cc12 [N1-(3-chlorophenyl)-4-[(5-chlorobenzo[b]thiophen-3-yl)methyl]-3,5-dimethyl-1H-pyrazole-1-carboxamide]
- activation at 5 µg/mL ([2]; Homo sapiens, HUVEC): 86%
- activation at 10 µg/mL [2, 3]: 40%

Compound: Cc1nc(-c2ccc(-c3cccs3)s2)sc1-c1ccn(C(=O)c2ccc(Cl)cc2)n1 [(4-chlorophenyl)(3-(2-(5-(2-thienyl)-2-thienyl)-4-methyl-1,3-thiazol-5-yl)-1H-pyrazol-1-yl)methanone]
- activation at 5 µg/mL ([2]; Homo sapiens, HUVEC): 20%
- activation at 10 µg/mL [2, 3]: 33%

Compound: CNC(=O)n1ccc(C=Cc2cccs2)n1 [N-methyl-3-(2-(2-thienyl)vinyl)-1H-pyrazole-1-carboxamide]
- activation at 5 µg/mL ([2]; Homo sapiens, HUVEC): 70%
- activation at 10 µg/mL [2, 3]: 42%

Compound: Cc1nn(C(=O)Nc2ccccc2)c(C)c1Cc1csc2ccc(Cl)cc12 [N1-phenyl-4-[(5-chlorobenzo[b]thiophen-3-yl)methyl]-3,5-dimethyl-1H-pyrazole-1-carboxamide]
- Stimulation at 5 microg/ml [2]: two fold stimulation
- activation at 10 µg/mL [2, 3]: 45%

Compound: O=C(Nc1ccc(Cl)cc1)n1ccc(C=Cc2cccs2)n1 [N1-(4-chlorophenyl)-3-(2-(2-thienyl)vinyl)-1H-pyrazole-1-carboxamide]
- Stimulation/Inhibition at 5 microg/ml (result in words) [2]: No effect
- activation at 10 µg/mL [2, 3]: 55%

Compound: Cc1nn(S(=O)(=O)c2ccccc2Cl)c(C)c1-c1csc2ccc(Cl)cc12 [4(5-chlorobenzo(b)thiophen-3-yl)-1-(2-chlorophenyl)sulfonyl)-3,5dimethyl-1-H-pyrazole]
- Stimulation at 5 microg/ml [2]: 1.8 fold stimulation
- Stimulation/Inhibition at 10 microg/ml (result in words) ([2]; 10 microg/ml): Not significant

Compound: Cc1nn(S(=O)(=O)c2cc(C(F)(F)F)cc(C(F)(F)F)c2)c(C)c1Cc1c(F)cccc1Cl [4-(2-chloro-6-fluorobenzyl)-1-{[3,5-di(trifluoromethyl)phenyl]sulfonyl}-3,5-dimethyl-1H-pyrarole]
- Stimulation at 5 microg/ml [2]: 3.1 fold stimulation
- Stimulation at 10 microg/ml ([2]; 10 microg/ml): 2.4 fold stimulation

Compound: N#Cc1c(Cl)cccc1Oc1ccc(-c2ccnn2Cc2ccc(Cl)cc2)cc1 [2-chloro-6-(4-(1-(4-chlorobenzyl)-1H-pyrazol-5-yl)phenoxy)benzonitrile]
- activation at 5 µg/mL ([2]; Homo sapiens, HUVEC): 60%
- activation at 10 µg/mL [2, 3]: 90%

Compound: O=C(c1ccc(Cl)cc1)n1ccc(-c2ccc(-c3cccs3)s2)n1 [(4-chlorophenyl)(3-(5-(2-thienyl)-2-thienyl)-1H-pyrazol-1-yl)methanone]
- activation at 5 µg/mL ([2]; Homo sapiens, HUVEC): 40%
- activation at 10 µg/mL [2, 3]: 40%

Compound: CNC(=O)n1nc(C)c(Cc2csc3ccc(Cl)cc23)c1C [4-[(5-chloro-1-benzothiophen-3-yl)methyl]-N,3,5-trimethyl-1H-pyrazole-1-carboxamide]
- Stimulation at 5 microg/ml [2]: two fold stimulation
- Stimulation at 10 microg/ml ([2]; 10 microg/ml): two fold stimulation

Compound: CCc1cn(C(=O)c2cccs2)nc1-c1c(F)cccc1F [[3-(2,6-difluorophenyl)-4-ethyl-1H-pyrazol-1-yl](2-thienyl)methanone]
- Stimulation at 5 microg/ml [2]: 2.5 fold stimulation
- Stimulation at 10 microg/ml ([2]; 10 microg/ml): two fold stimulation

Compound: CCc1cn(C(=O)C(C)(C)C)nc1-c1c(F)cccc1F [1-[3-(2,6-difluorophenyl)-4-ethyl-1H-pyrazol-1-yl]-2,2-dimethylpropan-1-one]
- Stimulation/Inhibition at 10 microg/ml (result in words) ([2]; 10 microg/ml): not significant
- activation at 5 µg/mL ([2]; Homo sapiens, HUVEC): 58%

Compound: Cc1nn(-c2ccccc2)c(O)c1Cc1c(Cl)cccc1Cl [4-(2,6-dichlorobenzyl)-3-methyl-1-phenyl-1H-pyrazol-5-ol]
- Stimulation at 5 microg/ml [2]: 2.3 fold stimulation
- Stimulation at 10 microg/ml ([2]; 10 microg/ml): two fold stimulation

Compound: COC(=O)c1c(C)nn(C(=O)c2ccc(Cl)cc2)c1-c1ccno1 [methyl 1-(4-chlorobenzoyl)-5-isoxazol-5-yl-3-methyl-1H-pyrazole-4-carboxylate]
- Stimulation/Inhibition at 5 microg/ml (result in words) [2]: Not significant
- activation at 10 µg/mL [2, 3]: 33%

Compound: CC(C)(C)C(=O)n1ccc(C=Cc2cccs2)n1 [2,2-dimethyl-1-(3-(2-(2-thienyl)vinyl)-1H-pyrazole-1-yl)propan-1-one]
- Stimulation/Inhibition at 5 microg/ml (result in words) [2]: No effect
- activation at 10 µg/mL [2, 3]: 55%

Reference: patent US6855728B2, “Small-molecule modulators of hepatocyte growth factor / scatter factor activities” (North Shore-Long Island Jewish Health System, priority 2001, dated 2005)
